From patent US20120095024A1, “TOLUIDINE SULFONAMIDES AND THEIR USE” (Elara Pharmaceuticals GmbH, priority 2008, published 2012)

Test system: MCF7 cells
Test: Cell proliferation assay (ATPlite), MCF-7
Type: cell-based, human
Details: Homo sapiens, inhibition of cell proliferation, 72 h
Procedure: MCF-7 human breast adenocarcinoma cells and HL-60 acute promyelocytic leukaemia cells were obtained from ATCC (LGC Promochem). HG-1 multiple myeloma cells were obtained from Dr. D. Hose (DKFZ Heidelberg). The CellSensor® HRE-bla HCT116 cell line (colorectal carcinoma) was obtained from Invitrogen.
Cells were grown under humidified 95% air, 5% CO2 at 37° C. in Dulbecco's modified Eagle's medium (DMEM: MCF-7) or RPMI 1640 medium (RPMI: HL-60, HG-1) supplemented with 10% fetal bovine serum (FBS), 100 U/ml penicillin and 100 μg/ml streptomycin, 2 mM L-glutamine, and 2 ng/ml IL-6 (for the HG-1 cell line only). The HCT116 cell line was grown under the same atmospheric conditions in McCoy's 5A medium supplemented with 10% FBS and penicillin/streptomycin as above, in addition to blasticidin as a selection marker at a final concentration of 5 μg/ml.
Cell proliferation experiments were carried out in 96-well tissue culture plates with seeding of 2000 cells/well (MCF-7) or 1000 cells/well (HL-60, HG-1) in 100 μl of the relevant medium. Cells were subsequently incubated under the conditions mentioned for 24 h prior to addition of compounds.
For the determination of compound EC50 values, 10 μl compounds at 11× concentrations in 5.5% DMSO were added to the wells at various concentrations yielding a final constant percentage of 0.5% DMSO at the desired 1× compound concentration. As a positive control, cells were treated with 5.5% DMSO. The cells were then incubated for a further 72 h prior to the measurement.
To determine the degree of inhibition of cell proliferation, cells were treated with ATPlite solution according to the manufacturer's instructions (PerkinElmer, ATPlite 1-step Luminescence ATP Detection Assay System) and luciferase readout measured on an Envision HTS multilabel plate reader (PerkinElmer) in luminescence mode according to established protocols. Raw data were imported into an ActivityBase database (IDBS, ID Business Solutions) and EC50 values calculated using the IDBS program ActivityBase XE. Table 2A and 2B show the IC50 values obtained in the above-outlined cell proliferation assay for exemplary compounds of the invention.

| EC50 [µM] | Structure (SMILES) |
| --- | --- |
| < 0.5 | COc1ccc(-c2ccc(C)c(NS(=O)(=O)c3ccc(C)cc3)c2)nc1 [Example 44, N-[5-(5-Methoxy-pyridin-2-yl)-2-methyl-phenyl]-4-methyl-benzenesulfonamide] |
| < 0.5 | COc1cc(-c2ccc(C)c(NS(=O)(=O)c3ccc(N)cc3)c2)ccc1C#N [Example 102, 4-amino-N-(4′-cyano-3′-methoxy-4-methylbiphenyl-3-yl)benzenesulfonamide] |
| 0.5 to 1 | Cc1ccc(S(=O)(=O)Nc2cc(-c3sccc3C#N)ccc2C)cc1 [Example 59, N-[5-(3-Cyano-thiophen-2-yl)-2-methyl-phenyl]-4-methyl-benzenesulfonamide] |
| 1 to 10 | COc1cccnc1-c1ccc(C)c(NS(=O)(=O)c2ccc(C)cc2)c1 [Example 26, N-[5-(3-Methoxy-pyridin-2-yl)-2-methyl-phenyl]-4-methyl-benzenesulfonamide] |
| 0.5 to 1 | COc1cccc(-c2ccc(C)c(NS(=O)(=O)c3ccc(C)cc3)c2)n1 [Example 9, N-[5-(6-Methoxy-pyridin-2-yl)-2-methyl-phenyl]-4-methyl-benzenesulfonamide] |
| 1 to 10 | Cc1ccc(S(=O)(=O)Nc2cc(-c3ccc(C(F)(F)F)cn3)ccc2C)cc1 [Example 45, 4-Methyl-N-[2-methyl-5-(5-trifluoromethyl-pyridin-2-yl)-phenyl]-benzenesulfonamide] |
| 0.5 to 1 | Cc1ccc(S(=O)(=O)Nc2cc(-c3cccc(N(C)C)n3)ccc2C)cc1 [Example 66, N-[5-(6-Dimethylamino-pyridin-2-yl)-2-methyl-phenyl]-4-methyl-benzenesulfonamide] |
| < 0.5 | COc1ccc(S(=O)(=O)Nc2cc(-c3ccc(C#N)s3)ccc2C)cc1F [Example 92, N-[5-(5-Cyano-thiophen-2-yl)-2-methyl-phenyl]-3-fluoro-4-methoxy-benzenesulfonamide] |
| 1 to 10 | Cc1ccc(S(=O)(=O)Nc2cc(-c3ccc(C)cn3)ccc2C)cc1 [Example 32, 4-Methyl-N-[2-methyl-5-(5-methyl-pyridin-2-yl)-phenyl]-benzenesulfonamide] |
| < 0.5 | COc1ccc(S(=O)(=O)Nc2cc(-n3ccc(C)n3)ccc2C)cc1 [Example 30, 4-Methoxy-N-[2-methyl-5-(3-methyl-pyrazol-1-yl)-phenyl]-benzenesulfonamide] |
| < 0.5 | COc1ccc(S(=O)(=O)Nc2cc(-n3cccc3C)ccc2C)cc1 [Example 50, 4-Methoxy-N-[2-methyl-5-(2-methyl-pyrrol-1-yl)-phenyl]-benzenesulfonamide] |
| 0.5 to 1 | Cc1ccc(S(=O)(=O)Nc2cc(-c3cccc(C(F)(F)F)n3)ccc2C)cc1 [Example 39, 4-Methyl-N-[2-methyl-5-(6-trifluoromethyl-pyridin-2-yl)-phenyl]-benzenesulfonamide] |
| 0.5 to 1 | Cc1ccc(S(=O)(=O)Nc2cc(-c3cccc(C)c3)ccc2C)cc1 [Example 7, N-(4,3′-Dimethyl-biphenyl-3-yl)-4-methyl-benzenesulfonamide] |
| 0.5 to 1 | COc1ccc(S(=O)(=O)Nc2cc(-n3cccc3C#N)ccc2C)cc1 [Example 41, N-[5-(2-Cyano-pyrrol-1-yl)-2-methyl-phenyl]-4-methoxy-benzenesulfonamide] |
| < 0.5 | COc1ccc(S(=O)(=O)Nc2cc(-c3ccsc3C)ccc2C)cc1 [Example 17, 4-Methoxy-N-[2-methyl-5-(2-methyl-thiophen-3-yl)-phenyl]-benzenesulfonamide] |
| 1 to 10 | COc1ccc(S(=O)(=O)Nc2cc(-c3ccc(OC(F)(F)F)cc3)ccc2C)cc1 [Example 83, 4-Methoxy-N-(4-methyl-4′-trifluoromethoxy-biphenyl-3-yl)-benzenesulfonamide] |

| EC50 [µM] | Structure (SMILES) |
| --- | --- |
| < 0.5 | COc1ccc(S(=O)(=O)Nc2cc(-c3ccc(C#N)s3)ccc2C)cc1C [Example 109, N-(5-(5-cyanothiophen-2-yl)-2-methylphenyl)-4-methoxy-3-methylbenzenesulfonamide] |
| < 0.5 | Cc1ccc(S(=O)(=O)Nc2cc(-c3ccc(C#N)cc3)ccc2C)cc1F [Example 88, N-(4′-Cyano-4-methyl-biphenyl-3-yl)-3-fluoro-4-methyl-benzenesulfonamide] |
| 1 to 10 | CCOc1ccc(-c2ccc(C)c(NS(=O)(=O)c3ccc(C)cc3)c2)cn1 [Example 37, N-[5-(6-Ethoxy-pyridin-3-yl)-2-methyl-phenyl]-4-methyl-benzenesulfonamide] |
| 1 to 10 | Cc1ccc(S(=O)(=O)Nc2cc(-c3cc(C)cc(C)n3)ccc2C)cc1 [Example 67, N-[5-(4,6-Dimethyl-pyridin-2-yl)-2-methyl-phenyl]-4-methyl-benzenesulfonamide] |
| 1 to 10 | Cc1ccc(-c2csc(C#N)c2)cc1NS(=O)(=O)c1ccc([N+](=O)[O-])cc1 [Example 96, N-(5-(5-cyanothiophen-3-yl)-2-methylphenyl)-4-nitrobenzenesulfonamide] |
| < 0.5 | Cc1ccc(-c2ccc(C#N)s2)cc1NS(=O)(=O)c1ccc(N)cc1 [Example 93, 4-Amino-N-[5-(5-cyano-thiophen-2-yl)-2-methyl-phenyl]-benzenesulfonamide] |
| 1 to 10 | Cc1ccc(S(=O)(=O)Nc2cc(-c3nnn(C)n3)ccc2C)cc1 [Example 6, 4-Methyl-N-[2-methyl-5-(2-methyl-2H-tetrazol-5-yl)-phenyl]-benzenesulfonamide] |
| 0.5 to 1 | COc1ccc(S(=O)(=O)Nc2cc(-c3cccc(C#N)c3)ccc2C)cc1 [Example 57, N-(3′-Cyano-4-methyl-biphenyl-3-yl)-4-methoxy-benzenesulfonamide] |
| 0.5 to 1 | Cc1ccc(S(=O)(=O)Nc2cc(-c3cccc(C)n3)ccc2C)cc1 [Example 33, 4-Methyl-N-[2-methyl-5-(6-methyl-pyridin-2-yl)-phenyl]-benzenesulfonamide] |
| < 0.5 | Cc1ccc(S(=O)(=O)Nc2cc(-c3ccc([N+](=O)[O-])o3)ccc2C)cc1 [Example 76, 4-Methyl-N-[2-methyl-5-(5-nitro-furan-2-yl)-phenyl]-benzenesulfonamide] |
| 0.5 to 1 | Cc1ccc(S(=O)(=O)Nc2cc(-c3ncc(C#N)cn3)ccc2C)cc1 [Example 64, N-[5-(5-Cyano-pyrimidin-2-yl)-2-methyl-phenyl]-4-methyl-benzenesulfonamide] |
| 1 to 10 | Cc1ccc(-c2ccc(C#N)cc2)cc1NS(=O)(=O)c1ccc(O)cc1 [Example 100, N-(4′-cyano-4-methylbiphenyl-3-yl)-4-hydroxybenzenesulfonamide] |
| < 0.5 | COc1ccc(S(=O)(=O)Nc2cc(-c3ccc(C#N)c(OC)c3)ccc2C)cc1 [Example 89, N-(4′-Cyano-3′-methoxy-4-methyl-biphenyl-3-yl)-4-methoxy-benzenesulfonamide] |
| < 0.5 | Cc1ccc(S(=O)(=O)Nc2cc(-c3ccoc3C)ccc2C)cc1 [Example 25, 4-Methyl-N-[2-methyl-5-(2-methyl-furan-3-yl)-phenyl]-benzenesulfonamide] |
| 1 to 10 | Cc1ccc(S(=O)(=O)Nc2cc(-c3nnn[nH]3)ccc2C)cc1 [Example 1, 4-Methyl-N-[2-methyl-5-(1H-tetrazol-5-yl)-phenyl]-benzenesulfonamide] |
| 0.5 to 1 | C#Cc1ccc(-c2ccc(C)c(NS(=O)(=O)c3ccc(C)cc3)c2)cc1 [Example 84, N-(4′-Ethynyl-4-methyl-biphenyl-3-yl)-4-methyl-benzenesulfonamide] |
